Experimental data taken from patent US6407094B1, “Glutamate receptor antagonists” (Hoffmann-la Roche Inc., priority 1999, dated 2002).

Experiments:
rat mGlu2 receptor = molecular target: T1, rat mGlu2 receptor (Rattus norvegicus, UniProt P31421); test: [3H]-LY354740 binding on mGlu2 transfected CHO cell membranes
T1 construct: expressed in transfected cells; host or cells: CHO cells, stably transfected with pcD1mGR2 (pcDNA I-amp), G-418 selected; membranes used
T1 sequence (P31421 19-872): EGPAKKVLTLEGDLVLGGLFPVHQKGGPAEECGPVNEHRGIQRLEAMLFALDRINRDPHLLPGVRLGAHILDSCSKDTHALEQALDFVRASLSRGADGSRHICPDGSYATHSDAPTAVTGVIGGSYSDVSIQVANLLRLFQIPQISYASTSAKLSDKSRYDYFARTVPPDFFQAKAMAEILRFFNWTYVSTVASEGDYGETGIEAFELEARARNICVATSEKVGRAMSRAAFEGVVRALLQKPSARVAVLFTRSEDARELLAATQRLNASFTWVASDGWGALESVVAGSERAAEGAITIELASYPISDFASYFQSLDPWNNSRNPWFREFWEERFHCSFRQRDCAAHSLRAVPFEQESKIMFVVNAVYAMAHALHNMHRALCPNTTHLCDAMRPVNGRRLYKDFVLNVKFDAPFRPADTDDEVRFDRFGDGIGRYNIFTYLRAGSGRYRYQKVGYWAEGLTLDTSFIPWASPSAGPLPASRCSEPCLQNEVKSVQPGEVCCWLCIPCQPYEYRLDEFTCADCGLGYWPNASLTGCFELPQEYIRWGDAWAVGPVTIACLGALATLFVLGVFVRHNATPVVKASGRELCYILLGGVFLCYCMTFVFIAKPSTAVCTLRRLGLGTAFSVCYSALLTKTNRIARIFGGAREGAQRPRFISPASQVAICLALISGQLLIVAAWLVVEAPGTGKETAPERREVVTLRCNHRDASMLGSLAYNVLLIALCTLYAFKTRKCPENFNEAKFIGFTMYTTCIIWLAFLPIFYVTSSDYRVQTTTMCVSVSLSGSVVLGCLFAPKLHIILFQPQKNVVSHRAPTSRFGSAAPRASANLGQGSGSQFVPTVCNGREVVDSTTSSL

| melting point | Ki (rat mGlu2 receptor) [nM] | Structure (SMILES) |
| --- | --- | --- |
| 247 °C | 13 | O=C1CC(c2cccc(-n3ccnc3)c2)=Nc2cc(O)c(C#Cc3ccc(F)cc3)cc2N1 [Example 91, 8-(4-Fluoro-phenylethynyl)-7-hydroxy-4-(3-imidazol-1-yl-phenyl)-1,3-dihydro-benzo[b][1,4]diazepin-2-one] |
| 220 to 222 °C | 138 | COc1cc2c(cc1-c1ccccc1F)NC(=O)CC(c1cccc(-n3ccnc3C)c1)=N2 [Example 68, 8-(2-Fluoro-phenyl)-7-methoxy-4-[3-(2-methyl-imidazol-1-yl)-phenyl]-1,3-dihydro-benzo[b][1,4]diazepin-2-one] |
| > 250 °C | 6 | N#Cc1cccc(C2=Nc3cc(O)c(-c4cc(F)ccc4F)cc3NC(=O)C2)c1 [Example 90, 3-[7-(2,5-Difluoro-phenyl)-8-hydroxy-4-oxo-4,5-dihydro-3H-benzo[b][1,4]diazepin-2-yl]-benzonitrile] |
| 201 °C (dec.) | 51 | COC(=O)CSc1cc2c(cc1C#Cc1ccccc1)NC(=O)CC(c1cccc(C#N)c1)=N2 [Example 12, [4-(3-Cyano-phenyl)-2-oxo-8-phenylethynyl-2,3-dihydro-1H-benzo[b][1,4]diazepin-7-ylsulfanyl]-acetic acid methyl ester] |
| 242 to 244 °C (dec.) | 120 | N#Cc1cccc(C2=Nc3cc(Cl)c(-c4ccccc4)cc3NC(=O)C2)c1 [Example 7, 3-(8-Chloro-4-oxo-7-phenyl-4,5-dihydro-3H-benzo[b][1,4]diazepin-2-yl)-benzonitrile] |
|  | 28 | N#Cc1cccc(C2=Nc3cc(Cl)c(C#Cc4ccccc4)cc3NC(=O)C2)c1 [Example 3, 3-(8-Chloro-4-oxo-7-phenylethynyl-4,5-dihydro-3H-benzo[b][1,4]diazepin-2-yl)-benzonitrile] |
| 240 to 242 °C | 33 | COc1cc2c(cc1-c1ccccc1F)NC(=O)CC(c1ccnc(C#N)c1)=N2 [Example 71, 4-[7-(2-Fluoro-phenyl)-8-methoxy-4-oxo-4,5-dihydro-3H-benzo[b][1,4]diazepin-2-yl)-pyridine-2-carbonitrile] |
| 250 °C | 7 | O=C1CC(c2cccc(-n3ccnc3)c2)=Nc2cc(O)c(-c3ccc(F)cc3)cc2N1 [Example 61, 8-(4-Fluoro-phenyl)-7-hydroxy-4-(3-imidazol-1-yl-phenyl)-1,3-dihydro-benzo[b][1,4]diazepin-2-one] |
| 224 to 227 °C | 32 | O=C1CC(c2cccc(-n3ccnc3)c2)=Nc2cc(OCCO)c(C#Cc3ccccc3)cc2N1 [Example 42, 7-(2-Hydroxy-ethoxy)-4-(3-imidazol-1-yl-phenyl)-8-phenylethynyl-1,3-dihydro-benzo[b][1,4]diazepin-2-one] |
| 262 °C (dec.) | 16 | N#CCc1cc2c(cc1C#Cc1ccccc1)NC(=O)CC(c1cccc(C#N)c1)=N2 [Example 23, 3-(8-Cyanomethyl-4-oxo-7-phenylethynyl-4,5-dihydro-3H-benzo[b][1,4]diazepin-2-yl)-benzonitrile] |
| 250 to 251 °C |  | COC1CCN(c2cc3c(cc2C#Cc2ccccc2)NC(=O)CC(c2cccc(C#N)c2)=N3)CC1 [Example 34, 3-[8-(4-Methoxy-piperidin-1-yl)-4-oxo-7-phenylethynyl-4,5-dihydro-3H-benzo[b][1,4]diazepin-2-yl]-benzonitrile] |
| 230 to 234 °C (dec.) |  | N#Cc1cccc(C2=Nc3cc(OCC(O)CO)c(C#Cc4ccccc4)cc3NC(=O)C2)c1 (stereo not drawn) [Example 24, 3-[8-(2,3-Dihydroxy-propoxy)-4-oxo-7-phenylethynyl-4,5-dihydro-3H-benzo[b][1,4]diazepin-2-yl]-benzonitrile] |
| > 250 °C |  | N#Cc1cc(C2=Nc3cc(O)c(-c4ccccc4F)cc3NC(=O)C2)ccn1 [Example 80, 4-[7-(2-Fluoro-phenyl)-8-hydroxy-4-oxo-4,5-dihydro-3H-benzo[b][1,4]diazepin-2-yl]-pyridine-2-carbonitrile] |
| > 250 °C |  | COc1cc2c(cc1-c1ccccc1F)NC(=O)CC(c1cc(C#N)ccc1F)=N2 [Example 73, 4-Fluoro-3-[7-(2-fluoro-phenyl)-8-methoxy-4-oxo-4,5-dihydro-3H-benzo[b][1,4]diazepin-2-yl]-benzonitrile] |
| 251 °C |  | COc1cc2c(cc1-c1cc(F)ccc1F)NC(=O)CC(c1cccc(C#N)c1)=N2 [Example 82, 3-[7-(2,5-Difluoro-phenyl)-8-methoxy-4-oxo-4,5-dihydro-3H-benzo[b][1,4]diazepin-2-yl]-benzonitrile] |
| 217 °C (dec.) |  | CN(CCO)c1cc2c(cc1C#Cc1ccc(F)cc1)NC(=O)CC(c1cccc(-n3ccnc3)c1)=N2 [Example 38, 8-(4-Fluoro-phenylethynyl)-7-[(2-hydroxy-ethyl)-methyl-amino]-4-(3-imidazol-1-yl-phenyl)-1,3-dihydro-benzo[b][1,4]diazepin-2-one] |
| 237 to 239 °C (dec.) |  | Cc1cc2c(cc1C#Cc1ccccc1)NC(=O)CC(c1cccc(C#N)c1)=N2 [Example 4, 3-(8-Methyl-4-oxo-7-phenylethynyl-4,5-dihydro-3H-benzo[b][1,4]diazepin-2-yl)-benzonitrile] |

| melting point | Ki (rat mGlu2 receptor) [nM] | Structure (SMILES) |
| --- | --- | --- |
| 211 to 213 °C |  | COCCOc1cc2c(cc1-c1ccccc1F)NC(=O)CC(c1cccc(C#N)c1)=N2 [Example 87, 3-[7-(2-Fluoro-phenyl)-8-(2-methoxy-ethoxy)-4-oxo-4,5-dihydro-3H-benzo[b][1,4]diazepin-2-yl]-benzonitrile] |
| 227 to 230 °C (dec.) |  | COCCOc1cc2c(cc1C#Cc1ccccc1)NC(=O)CC(c1cccc(C(N)=O)c1)=N2 [Example 95, 3-[8-(2-Methoxy-ethoxy)-4-oxo-7-phenylethynyl-4,5-dihydro-3H-benzo[b][1,4]diazepin 2-yl]-benzamide] |
| 218 °C |  | CC(C)(C)C(=O)OCc1cc2c(cc1C#Cc1ccccc1)NC(=O)CC(c1cccc(C#N)c1)=N2 [Example 30, 2,2-Dimethyl-propionic acid 4-(3-cyano-phenyl)-2-oxo-8-phenylethynyl-2,3-dihydro-1H-benzo[b][1,4]diazepin-7-ylmethyl ester] |
| 245 to 247 °C |  | COc1cc2c(cc1-c1ccccc1F)NC(=O)CC(c1cccc(C#N)c1)=N2 [Example 67, 3-[7-(2-Fluoro-phenyl)-8-methoxy-4-oxo-4,5-dihydro-3H-benzo[b][1,4]diazepin-2-yl]-benzonitrile] |
| 204 °C |  | O=C1CCN(c2cc3c(cc2-c2ccc(F)cc2)NC(=O)CC(c2cccc(-n4ccnc4)c2)=N3)CC1 [Example 52, 8-(4-Fluoro-phenyl)-4-(3-imidazol-1-yl-phenyl)-7-(4-oxo-piperidin-1-yl)-1,3-dihydro-benzo[b][1,4]diazepin-2-one] |
| > 250 °C |  | COC(=O)c1cc2c(cc1C#Cc1ccccc1)NC(=O)CC(c1cccc(C#N)c1)=N2 [Example 19, 4-(3-Cyano-phenyl)-2-oxo-8-phenylethynyl-2,3-dihydro-1H-benzo[b][1,4]diazepine-7-carboxylic acid methyl ester] |
| 236 °C (dec.) |  | COC(=O)Cc1cc2c(cc1C#Cc1ccccc1)NC(=O)CC(c1cccc(C#N)c1)=N2 [Example 14, [4-(3-Cyano-phenyl)-2-oxo-8-phenylethynyl-2,3-dihydro-1H-benzo[b][1,4]diazepin-7-yl]-acetic acid methyl ester] |
| > 250 °C |  | N#Cc1cccc(C2=Nc3cc(O)c(-c4ccccc4F)cc3NC(=O)C2)c1 [Example 66, 3-[7-(2-Fluoro-phenyl)-8-hydroxy-4-oxo-4,5-dihydro-3H-benzo[b][1,4]diazepin-2-yl]-benzonitrile] |
| 230 °C |  | O=C1CCN(c2cc3c(cc2-c2ccccc2F)NC(=O)CC(c2cccc(-n4ccnc4)c2)=N3)CC1 [Example 78, 8-(2-Fluoro-phenyl)-4-(3-imidazol-1-yl-phenyl)-7-(4-oxo-piperidin-1-yl)-1,3-dihydro-benzo[b][1,4]diazepin-2-one] |
| 242 °C |  | N#Cc1ccsc1C1=CC(=O)Nc2cc(-c3ccccc3F)c(O)cc2N1 [Example 84, 2-[7-(2-Fluoro-phenyl)-8-hydroxy-4-oxo-4,5-dihydro-1H-benzo[b][1,4]diazepin-2yl]-thiophene-3-carbonitrile] |
| > 255 °C |  | N#Cc1cccc(C2=Nc3cc(CO)c(C#Cc4ccccc4)cc3NC(=O)C2)c1 [Example 31, 3-(8-Hydroxymethyl-4-oxo-7-phenylethynyl-4,5-dihydro-3H-benzo[b][1,4]diazepin-2-yl)-benzonitrile] |
| 212 °C |  | N#CCOc1cc2c(cc1C#Cc1ccccc1)NC(=O)CC(c1cccc(C#N)c1)=N2 [Example 36, 3-(8-Cyanomethoxy-4-oxo-7-phenylethynyl-4,5-dihydro-3H-benzo[b][1,4]diazepin-2-yl)-benzonitrile] |
| 197 °C (dec.) |  | CN(C)CCSc1cc2c(cc1C#Cc1ccccc1)NC(=O)CC(c1cccc(C#N)c1)=N2 [Example 11, 3-[8-(2-Dimethylamino-ethylsulfanyl)-4-oxo-7-phenylethynyl-4,5-dihydro-3H-benzo[b][1,4]diazepin-2-yl]-benzonitrile] |
| 90 to 91 °C |  | N#Cc1cccc(C2=Nc3cc(CO)c(-c4ccccc4F)cc3NC(=O)C2)c1 [Example 88, 3-[7-(2-Fluoro-phenyl)-8-hydroxymethyl-4-oxo-4,5-dihydro-3H-benzo[b][1,4]diazepin-2-yl]-benzonitrile] |
| > 250 °C (dec.) |  | N#Cc1cccc(C2=Nc3cc(N4CCS(=O)(=O)CC4)c(C#Cc4ccccc4)cc3NC(=O)C2)c1 [Example 6, 3-[8-(1,1-Dioxo-thiomorpholin-4-yl)-4-oxo-7-phenylethynyl-4,5-dihydro-3H-benzo[b][1,4]diazepin-2-yl]-benzonitrile] |
| 216 °C (dec.) |  | COc1cc2c(cc1-c1ccccc1F)NC(=O)CC(c1cccc(-n3ccnc3)c1)=N2 [Example 64, 8-(2-Fluoro-phenyl)-4-(3-imidazol-1-yl-phenyl)-7-methoxy-1,3-dihydro-benzo[b][1,4]diazepin-2-one] |
